pIC50: −log10 of the molar value.
Target: T1, MMP-1 (Homo sapiens, UniProt P03956)
T1 construct: made in house; host or cells: MMP-1-transfected HT-1080 cells (spent media)
T1 sequence (P03956 100-469): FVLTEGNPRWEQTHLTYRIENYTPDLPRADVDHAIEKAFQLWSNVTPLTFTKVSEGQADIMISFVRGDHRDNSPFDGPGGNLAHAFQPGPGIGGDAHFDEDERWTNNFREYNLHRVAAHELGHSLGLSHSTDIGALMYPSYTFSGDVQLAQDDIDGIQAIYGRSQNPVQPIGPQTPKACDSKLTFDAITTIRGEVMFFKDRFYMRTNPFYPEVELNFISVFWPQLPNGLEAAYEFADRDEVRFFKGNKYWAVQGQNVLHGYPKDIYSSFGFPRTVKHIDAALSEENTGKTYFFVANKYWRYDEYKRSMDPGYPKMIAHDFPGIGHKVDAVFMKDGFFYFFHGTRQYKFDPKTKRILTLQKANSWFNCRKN
Experiment: In vitro MMP inhibition, IC50 determination (fluorogenic substrate I)
Assay type: biochemical
Details: value in parentheses; read-out: MMP-1 (IC-50)
Procedure: Several hydroxamic acids and salts thereof were analyzed in in vitro assays to determine their ability to inhibit the MMP cleavage of peptide substrates. […] and IC50 constants were calculated from the assayed hydroxamic acid-MMP interactions. Human recombinant MMP-1, MMP-2, MMP-9, MMP-13, and MMP-14 were used in this assay. All enzymes were prepared in Assignee's laboratories following usual laboratory procedures. Protocols for the preparation and use of these enzymes are available in the scientific literature. See, e.g., Enzyme Nomenclature (Academic Press, San Diego, Calif., 1992) (and the citations therein). See also, Freije et al., “Molecular cloning and expression of collagenase-3, a novel human matrix metalloproteinase produced by breast carcinomas,” J Biol. Chem., 269(24), 16766-16773 (1994). The MMP-1 proenzyme was purified from the spent media of MMP-1-transfected HT-1080 cells provided by Dr. Harold Welgus of Washington University (St. Louis, Mo.). The protein was purified on a zinc chelating column. All MMPs were activated using 4-aminophenylmercuric acetate (“APMA”, Sigma Chemical, St. Louis, Mo.) or trypsin. MMP-9 also was activated using human recombinant MMP-3 (purified in Assignee's laboratory following standard cloning and purification techniques). […] Substrate (I) was purchased from Baychem (Redwood City, Calif.), and substrate II was prepared Assignee's laboratory. Substrate I was used in the IC50 determination assays, while substrate II was used in the Ki determination assays. In the absence of MMP inhibitory activity, either substrate is cleaved at the Gly-Leu peptide bond. […] The stock solutions of the assayed hydroxamic acids (or salts thereof) were prepared in 1% dimethyl sulfoxide (DMSO). […] The experiment controls contained the same amount of Buffer A/DMSO as the assayed sample, but contained no hydroxamic acid (or salt thereof). The assays from which the IC50 determinations were made were performed as follows. […] Louis, Mo.). The assayed hydroxamic acid samples were incubated in MicrofluorTM White Plates (Dynatech, Chantilly, Va.) and analyzed on a Perkin Elmer […] plate reader (Norwalk, Conn.). The excitation wavelength was 328 nm, and the emission wavelength-415 nm. […] As stated in the previous paragraph, samples containing varying concentrations of the same assayed hydroxamic acid were prepared. Inhibition was measured as a reduction in fluorescent intensity as a function of MMP inhibitor concentration. […] All values in Table 2 are given in nM units. The IC50 measurements are in parenthesis.

Row | Structure (SMILES) | pIC50
1 | COCCOc1ccc(N2CCN(S(=O)(=O)C3(C(=O)NO)CCN(C4CC4)CC3)CC2)cc1F [Example 297] | < 5.00
2 | CCCCOc1ccc(N2CCN(S(=O)(=O)C3(C(=O)NO)CCN(c4ccc(C)cc4)CC3)CC2)cc1 [Example 295] | < 5.00
3 | CCCCOc1ccc(N2CCN(S(=O)(=O)C3(C(=O)NO)CCN(CC4CC4)CC3)CC2)cc1 [Example 298] | < 5.00
4 | C#CCN1CCC(C(=O)NO)(S(=O)(=O)N2CCN(c3ccc(OCCCC)cc3)CC2)CC1 [Example 303] | < 5.00

Continued, values first:

Row | pIC50 | Structure (SMILES)
5 | < 5.00 | CCCCOc1ccc(N2CCN(S(=O)(=O)C3(C(=O)NO)CCN(c4ccc(C)cc4)CC3)CC2)cc1F [Example 296]
6 | < 5.00 | CCCCOc1ccc(N2CCN(S(=O)(=O)C3(C(=O)NO)CCN(C4CC4)CC3)CC2)cc1 [Example 301]
